From article PMC10059066, “Probing Serum Albumins and Cyclodextrins as Binders of the Mycotoxin Metabolites Alternariol-3-Glucoside, Alternariol-9-Monomethylether-3-Glucoside, and Zearalenone-14-Glucuronide” (Metabolites, 2023)

Experiments:
[1] = tested on: albumins; parameters: method as in PMID 31083629; conditions: alternariol, RSA vs HSA; cited from earlier work
[2] = biological target: T1, human serum albumin (HSA) (Homo sapiens, UniProt P02768); assay: Fluorescence quenching of human serum albumin by mycotoxins; assay type: binding
T1 construct: purchased Merck (Darmstadt, Germany)
Method: (§1) Fluorescence emission spectra were collected at 25 °C using a Hitachi F-4500 fluorescence spectrophotometer (Tokyo, Japan). The quenching effects of AG, AMG, and Z14Glr (each 0–5 μM) on the emission signals of albumins (2 μM each) were examined at 340 nm in phosphate-buffered saline (PBS, pH 7.4). UV–vis measurements were performed at 25 °C in PBS, employing a Jasco V730 UV–vis spectrophotometer (Tokyo, Japan). Thereafter, we corrected the inner-filter effects of the mycotoxins, as previously reported. Stern–Volmer quenching constants (KSV; L/mol) were calculated with the graphical application of the Stern–Volmer equation [11, 29]:(1) I0/I=1+KSV×Q where I0 and I are the emission intensities of the protein without and with the quencher, respectively, while [Q] is the concentration (mol/L) of the quencher (mycotoxin). The binding constants (K; L/mol) of mycotoxin–albumin complexes were determined with nonlinear fitting, using the HyperQuad2006 software (version 3.1; Protonic Software GmbH, Hanau, Germany), as described previously.
(§2) The interaction of a ligand molecule with albumin usually induces a decrease in the emission signal of the protein [33]; therefore, fluorescence quenching studies were performed. In PBS (pH 7.4), increasing amounts of AG, AMG, and Z14Glr were added to standard concentrations of human (HSA), bovine (BSA), porcine (PSA), or rat (RSA) serum albumins, after which the emission spectra were recorded.
(§3) The KSV and K values of mycotoxin–albumin complexes were determined using the Stern–Volmer equation (Equation (1)) and the HyperQuad2006 software (see data in Table 1 and Table 2, respectively). […] The logKSV and logK values of the mycotoxin–albumin complexes were in good agreement (Table 1 and Table 2).

[3] = biological target: T2, bovine serum albumin (BSA) (Bos taurus, UniProt P02769); assay: Fluorescence quenching of bovine serum albumin by mycotoxins; assay type: binding
T2 construct: purchased Merck (Darmstadt, Germany)
Method: as §1, §2, §3

[4] = biological target: T3, porcine serum albumin (PSA) (Sus scrofa, UniProt P08835); assay: Fluorescence quenching of porcine serum albumin by mycotoxins; assay type: binding
T3 construct: purchased Merck (Darmstadt, Germany)
Method: as §1, §2, §3

[5] = biological target: T4, rat serum albumin (RSA) (Rattus norvegicus, UniProt P02770); assay: Fluorescence quenching of rat serum albumin by mycotoxins; assay type: binding
T4 construct: purchased Merck (Darmstadt, Germany)
Method: as §1, §2, §3

[6] = biological target: T1, human serum albumin (HSA); assay: Ultracentrifugation study of mycotoxin-HSA binding
Method: To confirm the data calculated based on fluorescence quenching studies, ultracentrifugation experiments were also performed. With the proper conditions of ultracentrifugation, albumin (with the bound ligands) can be sedimented. The samples (final volume: 500 μL) contained AG, AMG, or Z14Glr (5 μM each) with HSA (60 or 180 μM) dissolved in PBS. Centrifugation (16 h, 170,000× g, 20 °C) was performed using 11 × 34 mm PC tubes (Beckman Coulter, Brea, CA, US) and a Beckman Coulter Optima MAX-XP tabletop ultracentrifuge (fixed-angle rotor). The unbound fractions of mycotoxins were determined in the protein-free supernatant by HPLC-FLD (see details in Section 2.5), as previously reported. (3) K=[LA]/L×[A] where [L], [A], and [LA] are the concentrations (mol/L) of the ligand (unbound), albumin (unbound), and the ligand–albumin complex, respectively.
Furthermore, to test the impact of environmental pH on the stability of mycotoxin–albumin complexes, the abovementioned experiments were also performed in 0.05 M sodium acetate (pH 5.0) and 0.05 M sodium borate (pH 8.5) buffers.
To confirm the binding constants determined in the quenching experiments, and to get insight into the interaction of Z14Glr with HSA, ultracentrifugation studies were also performed. In these investigations, albumins (with the ligands bound) were sedimented, and then the concentrations of the unbound mycotoxins were quantified from the supernatants.

[7] = Fluorescence spectroscopic study of mycotoxin-SBECD complex formation; assay type: binding
Method: (§4) The impacts of SBECD (0–10 mM) and SGD (0–5 mM) on the emission signals of mycotoxins (1 μM each) were tested in sodium acetate buffer (0.05 M, pH 5.0). Mycotoxin–CD interactions were evaluated using the Benesi–Hildebrand equation [11, 31], assuming 1:1 stoichiometry of complex formation:(2) F0/F−F0=1/A+1/A×K×[CD] where K (L/mol) is the binding constant, F0 is the emission signal of the mycotoxin without the host molecules, F is the emission signal of the mycotoxin with CDs, A is a constant, and [CD] is the molar concentration (mol/L) of the host molecules.
(§5) Therefore, CD-induced elevation in the fluorescence emission intensities of mycotoxins was examined.
(§6) Based on the emission signals at 455 nm, the binding constants of ligand–CD complexes were calculated using the Benesi–Hildebrand equation (Equation (2)). Background corrections were performed in each experiment. […] Glucose and glucuronic acid are bulky, hydrophilic molecules; therefore, it is reasonable to hypothesize that these substituents make the inclusion of AG, AMG, and Z14Glr by the apolar CD cavity difficult.

[8] = Fluorescence spectroscopic study of mycotoxin-SGD complex formation; assay type: binding
Method: as §4, §5, §6

[9] = Extraction of mycotoxins from aqueous solutions with β-cyclodextrin bead polymer
Method: (§7) The extraction of mycotoxins by insoluble (but water-swellable) CD bead polymers was tested in 0.05 M sodium acetate (pH 5.0) and 0.05 M sodium borate (pH 10.0) buffers. AG, AMG, alternariol, Z14Glr, and zearalenone solutions (5 μM each) were incubated with increasing amounts (0–10 mg/mL) of BBP or GBP in a thermomixer for 40 min at 1000 rpm and 25 °C. After pulse centrifugation (5000× g, 3 s), the mycotoxin contents of the supernatants were analyzed by HPLC-FLD (see Section 2.5).
(§8) The quantitative analyses of the examined mycotoxins were performed with a Jasco HPLC system (Tokyo, Japan) equipped with a binary pump (PU-4180), an autosampler (AS 4050), and a fluorescence detector (FP-920). Chromatograms were evaluated using the ChromNAV2 software (Jasco). Alternariol and zearalenone were analyzed as described previously. During the validation of our new HPLC-FLD methods, the linearity (LIN), limit of detection (LOD), limit of quantification (LOQ), and intraday repeatability (IDR) were determined as described previously.
(§9) AG and AMG were quantified using the following method: Isocratic elution of the samples (20 μL) was performed at room temperature with a 1 mL/min flow rate, employing phosphoric acid (1 mM) and acetonitrile (65:35 v/v%) as the mobile phase, where a Security Guard (C18, 4.0 × 3.0 mm; Phenomenex, Torrance, CA, US) precolumn was linked to a Kinetex EVO C18 (250 × 4.6 mm, 5 μm; Phenomenex) analytical column. Chromatograms were recorded, applying 335 nm and 455 nm excitation and emission wavelengths, respectively. The method validation parameters were as follows: AG (LIN: 0.2–5.0 μM, R^2 = 0.999; LOD = 0.05 μM; LOQ = 0.18 μM; IDR = 1.3%, n = 7); AMG (LIN: 0.2–5.0 μM, R^2 = 0.997; LOD = 0.15 μM; LOQ = 0.50 μM; IDR = 2.3%, n = 7).
(§10) Z14Glr was quantified using the following method: Isocratic elution of the samples (20 μL) was performed at room temperature with a 1 mL/min flow rate, employing 1% acetic acid solution and acetonitrile (65:35 v/v%) as the mobile phase, where a Security Guard (C8, 4.0 × 3.0 mm; Phenomenex) precolumn was linked to a Mediterranea See8 (C8, 150 × 4.6 mm, 5 μm; Teknokroma, Barcelona, Spain) analytical column. Chromatograms were recorded, applying 315 nm and 465 nm excitation and emission wavelengths, respectively. The method validation parameters for the HPLC analysis of Z14Glr were also determined (LIN: 0.2–5.0 μM, R^2 = 0.999; LOD = 0.15 μM; LOQ = 0.50 μM; IDR = 2.0%, n = 7).

[10] = Extraction of mycotoxins from aqueous solutions with γ-cyclodextrin bead polymer; conditions: GBP 0–10 mg/mL, mycotoxin 5 μM, sodium acetate buffer pH 5.0
Method: as §7, §8
as §9, with “The method validation parameters were as follows: AG (LIN: 0.2–5.0 μM, R^2 = 0.999; LOD = 0.05 μM; LOQ = 0.18 μM; IDR = 1.3%, n = 7); AMG (LIN: 0.2–5.0 μM, R^2 = 0.997; LOD = 0.15 μM; LOQ = 0.50 μM; IDR = 2.3%, n = 7).” left out
as §10, with “The method validation parameters for the HPLC analysis of Z14Glr were also determined (LIN: 0.2–5.0 μM, R^2 = 0.999; LOD = 0.15 μM; LOQ = 0.50 μM; IDR = 2.0%, n = 7).” left out

[11] = tested on: serum albumins (HSA, BSA, PSA, RSA); assay: Fluorescence quenching, summary over the tested albumins; assay type: binding, human, bovine, porcine, rat; conditions: PBS pH 7.4, approximate over the albumins tested
Method: as §1, §3

[12] = PBS pH 7.4, 25 °C, albumin 2 μM, mycotoxin 0–5 μM, n = 3
[13] = Benesi–Hildebrand, 0.05 M sodium acetate pH 5.0, mycotoxin 1 μM, n = 3

T1 sequence (P02768 25-609): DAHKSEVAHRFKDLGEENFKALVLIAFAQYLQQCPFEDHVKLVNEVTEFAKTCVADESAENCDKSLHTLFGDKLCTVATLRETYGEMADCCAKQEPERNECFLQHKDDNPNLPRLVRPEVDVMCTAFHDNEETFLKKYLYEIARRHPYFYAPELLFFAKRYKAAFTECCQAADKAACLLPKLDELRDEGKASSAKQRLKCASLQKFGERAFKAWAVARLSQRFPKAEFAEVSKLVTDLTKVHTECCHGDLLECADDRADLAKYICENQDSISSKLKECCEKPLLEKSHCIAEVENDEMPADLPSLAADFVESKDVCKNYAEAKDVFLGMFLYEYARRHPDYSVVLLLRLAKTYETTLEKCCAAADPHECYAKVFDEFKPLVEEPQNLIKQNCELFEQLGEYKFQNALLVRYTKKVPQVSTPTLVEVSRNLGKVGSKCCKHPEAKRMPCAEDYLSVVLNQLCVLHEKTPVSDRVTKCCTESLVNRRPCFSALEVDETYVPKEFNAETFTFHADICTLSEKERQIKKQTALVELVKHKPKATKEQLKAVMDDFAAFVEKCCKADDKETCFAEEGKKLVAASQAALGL
T4 sequence (P02770 25-608): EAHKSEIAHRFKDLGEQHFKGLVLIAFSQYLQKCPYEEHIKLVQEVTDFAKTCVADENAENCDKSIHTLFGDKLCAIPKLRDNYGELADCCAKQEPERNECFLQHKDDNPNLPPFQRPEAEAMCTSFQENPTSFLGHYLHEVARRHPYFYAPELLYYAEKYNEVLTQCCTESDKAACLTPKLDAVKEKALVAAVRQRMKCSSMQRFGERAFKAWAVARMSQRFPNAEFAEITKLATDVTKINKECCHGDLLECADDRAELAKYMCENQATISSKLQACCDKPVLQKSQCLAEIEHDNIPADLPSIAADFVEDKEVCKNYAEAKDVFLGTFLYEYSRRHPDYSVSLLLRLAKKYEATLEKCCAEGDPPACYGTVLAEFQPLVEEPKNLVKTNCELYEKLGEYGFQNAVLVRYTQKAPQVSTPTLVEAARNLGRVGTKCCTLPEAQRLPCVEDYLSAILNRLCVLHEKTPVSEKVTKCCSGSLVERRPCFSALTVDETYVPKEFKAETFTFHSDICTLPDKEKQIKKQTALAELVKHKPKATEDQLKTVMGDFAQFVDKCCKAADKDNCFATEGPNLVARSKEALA
T2 sequence (P02769 25-607): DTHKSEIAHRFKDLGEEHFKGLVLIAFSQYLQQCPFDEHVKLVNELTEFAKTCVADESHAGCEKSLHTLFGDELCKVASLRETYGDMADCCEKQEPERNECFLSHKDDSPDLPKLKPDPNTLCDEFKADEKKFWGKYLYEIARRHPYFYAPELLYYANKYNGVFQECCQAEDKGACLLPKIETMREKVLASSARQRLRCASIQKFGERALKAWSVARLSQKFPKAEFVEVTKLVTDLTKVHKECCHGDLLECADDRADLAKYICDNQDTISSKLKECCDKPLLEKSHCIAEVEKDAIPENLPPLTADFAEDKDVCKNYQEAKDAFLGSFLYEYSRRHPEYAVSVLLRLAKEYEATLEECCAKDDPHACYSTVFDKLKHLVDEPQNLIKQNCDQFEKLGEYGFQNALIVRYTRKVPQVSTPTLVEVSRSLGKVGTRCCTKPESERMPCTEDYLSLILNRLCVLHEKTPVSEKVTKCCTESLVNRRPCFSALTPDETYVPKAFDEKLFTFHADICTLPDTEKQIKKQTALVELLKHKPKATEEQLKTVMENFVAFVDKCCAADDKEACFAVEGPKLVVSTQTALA
T3 sequence (P08835 25-607): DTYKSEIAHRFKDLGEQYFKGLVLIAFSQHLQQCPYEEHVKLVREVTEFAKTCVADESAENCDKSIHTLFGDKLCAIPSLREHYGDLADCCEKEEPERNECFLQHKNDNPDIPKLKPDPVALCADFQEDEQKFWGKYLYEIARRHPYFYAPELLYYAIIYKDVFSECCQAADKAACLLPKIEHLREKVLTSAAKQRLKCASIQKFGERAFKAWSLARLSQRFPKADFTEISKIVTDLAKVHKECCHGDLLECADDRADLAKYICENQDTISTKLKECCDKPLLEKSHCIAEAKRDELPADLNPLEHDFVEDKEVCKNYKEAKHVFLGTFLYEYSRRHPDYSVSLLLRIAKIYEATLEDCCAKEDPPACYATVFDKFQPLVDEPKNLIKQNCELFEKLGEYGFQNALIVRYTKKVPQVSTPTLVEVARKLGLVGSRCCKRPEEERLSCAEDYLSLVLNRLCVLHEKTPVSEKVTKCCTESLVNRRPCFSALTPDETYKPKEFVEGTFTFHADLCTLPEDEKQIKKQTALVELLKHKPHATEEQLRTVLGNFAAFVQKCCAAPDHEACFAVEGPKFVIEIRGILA

| Compound | affinity of RSA compared to HSA [1] | HSA logKSV ± SEM (Stern–Volmer quenching constant) [2, 12] | Kd ([2]; fluorescence quenching, HyperQuad fitting, PBS pH 7.4, n = 3, read-out: HSA logK ± SEM (binding constant) (converted)) | BSA logKSV ± SEM (Stern–Volmer quenching constant) [3, 12] | Kd ([3]; fluorescence quenching, HyperQuad fitting, PBS pH 7.4, n = 3, read-out: BSA logK ± SEM (binding constant) (converted)) | PSA logKSV ± SEM (Stern–Volmer quenching constant) [4, 12] | Kd ([4]; fluorescence quenching, HyperQuad fitting, PBS pH 7.4, n = 3, read-out: PSA logK ± SEM (binding constant) (converted)) | RSA logKSV ± SEM (Stern–Volmer quenching constant) [5, 12] | Kd ([5]; fluorescence quenching, HyperQuad fitting, PBS pH 7.4, n = 3, read-out: RSA logK ± SEM (binding constant) (converted)) | Kd ([6]; 0.05 M sodium acetate pH 5.0, mycotoxin 5 μM, n = 3, read-out: HSA pH 5.0 logK ± SEM (binding constant) (converted)) | Kd ([6]; 0.05 M sodium borate pH 8.5, mycotoxin 5 μM, n = 3, read-out: HSA pH 8.5 logK ± SEM (binding constant) (converted)) | Kd ([6]; PBS pH 7.4, mycotoxin 5 μM, n = 3, read-out: HSA pH 7.4 logK ± SEM (binding constant) (converted)) | SBECD logK ± SEM (binding constant) [7, 13] | SBECD-induced increase in the emission signal of the mycotoxin ([7]; SBECD 0–10 mM, mycotoxin 1 μM, sodium acetate pH 5.0) | SGD logK ± SEM (binding constant) [8, 13] | SGD-induced increase in the emission signal of the mycotoxin ([8]; SGD 0–5 mM, mycotoxin 1 μM, sodium acetate pH 5.0) | decrease in mycotoxin concentration (extraction) by BBP ([9]; BBP 10 mg/mL, mycotoxin 5 μM, sodium acetate buffer pH 5.0, 40 min, 25 °C) | removal of mycotoxin by BBP at pH 10.0 compared with pH 5.0 ([9]; sodium borate pH 10.0 vs sodium acetate pH 5.0, mycotoxin 5 μM) | removal of mycotoxin by GBP [10] | binding constant K of mycotoxin–albumin complexes [11] |
| --- | --- | --- | --- | --- | --- | --- | --- | --- | --- | --- | --- | --- | --- | --- | --- | --- | --- | --- | --- | --- |
| Cc1cc(O)cc2oc(=O)c3c(O)cc(O)cc3c12 [alternariol] | almost eightfold higher affinity | – | – | – | – | – | – | – | – | – | – | – | – | – | – | – | – | – | – | – |
| Cc1cc(OC2O[C@H](CO)[C@@H](O)[C@H](O)[C@H]2O)cc2oc(=O)c3c(O)cc(O)cc3c12 (some centres unmarked) [AG, alternariol-3-glucoside] | – | 4.48 ± 0.08 L/mol | 30.2 µM | 4.44 ± 0.04 L/mol | 34.7 µM | 4.38 ± 0.03 L/mol | 37.2 µM | 4.49 ± 0.03 L/mol | 29.5 µM | 33.1 µM | 39.8 µM | 57.5 µM | 2.92 ± 0.05 L/mol | threefold elevation | 3.19 ± 0.08 L/mol | approximately sevenfold increase | approximately 85% | significantly lower than at acidic pH | strongly reduced | ≈ 3 × 10^4 L/mol |
